ChEMBL document CHEMBL1201862, “PubChem BioAssay data set” (2004)
Calls of active or inactive are those of the source.

What was measured:
[1] = target: T1, Estrogen receptor (Homo sapiens, UniProt P03372); assay: ERα coactivator recruitment enhancers – biochemical, TR-FRET, ERα LBD, dose response (AID 737)
T1 sequence (P03372 whole entry): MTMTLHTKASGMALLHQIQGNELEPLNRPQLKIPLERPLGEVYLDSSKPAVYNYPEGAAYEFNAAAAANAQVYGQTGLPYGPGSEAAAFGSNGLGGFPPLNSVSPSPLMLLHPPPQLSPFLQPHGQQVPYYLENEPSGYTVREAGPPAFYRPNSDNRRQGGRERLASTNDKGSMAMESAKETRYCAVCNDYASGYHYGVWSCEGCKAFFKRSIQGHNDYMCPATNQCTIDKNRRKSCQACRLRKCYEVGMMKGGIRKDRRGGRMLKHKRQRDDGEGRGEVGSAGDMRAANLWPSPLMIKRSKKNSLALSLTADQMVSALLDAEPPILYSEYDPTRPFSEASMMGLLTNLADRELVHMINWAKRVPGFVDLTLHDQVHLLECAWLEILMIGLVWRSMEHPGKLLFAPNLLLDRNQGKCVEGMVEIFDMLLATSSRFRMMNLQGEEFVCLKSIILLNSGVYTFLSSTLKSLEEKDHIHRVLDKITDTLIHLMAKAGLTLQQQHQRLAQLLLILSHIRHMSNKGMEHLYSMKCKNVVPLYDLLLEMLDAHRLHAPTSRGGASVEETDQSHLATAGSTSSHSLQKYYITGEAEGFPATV

[2] = system: H9c2; assay: cells; assay type: functional, cell-based; details: Rattus norvegicus, H9c2, Myocardium;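 note: confirmatory concentration-response retest of ultra-high-throughput screening hits for modulation of myocardial damage; cell death induced by hydrogen peroxide oxidative stress; compound pretreatment for 60 min then peroxide exposure for 2 h; potency is for protecting the cells against peroxide damage rather than for killing them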
[3] = HEK-293T cell viability reduction – luminescence, B-cell screen hits, cytotoxicity control for BCR NF-kB inhibitor project, dose response (AID 489021); assay type: functional, cell-based;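 note: HEK-293T cells carrying an NF-kB luciferase reporter; cells exposed to compound for about 14 hours before viability readout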
[4] = system: Streptococcus sp. 'group A'; assay: Streptococcus pyogenes SK(-)GAS viability under kanamycin – luminescence, BacTiterGlo, confirmation, counter-screen for streptokinase expression inhibitor project, dose response (AID 1900); assay type: functional, organism-based
[5] = target: T2, Streptokinase A (Streptococcus pyogenes serotype M1, UniProt P10520); assay: viability-normalized secreted streptokinase activity reduction – plasminogen activation absorbance, OD405, dose response (AID 1914); assay type: functional, Streptococcus pyogenes M1 GAS;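 note: secreted streptokinase activity via plasminogen activation per viability signal from cell pellet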
T2 sequence (P10520 whole entry): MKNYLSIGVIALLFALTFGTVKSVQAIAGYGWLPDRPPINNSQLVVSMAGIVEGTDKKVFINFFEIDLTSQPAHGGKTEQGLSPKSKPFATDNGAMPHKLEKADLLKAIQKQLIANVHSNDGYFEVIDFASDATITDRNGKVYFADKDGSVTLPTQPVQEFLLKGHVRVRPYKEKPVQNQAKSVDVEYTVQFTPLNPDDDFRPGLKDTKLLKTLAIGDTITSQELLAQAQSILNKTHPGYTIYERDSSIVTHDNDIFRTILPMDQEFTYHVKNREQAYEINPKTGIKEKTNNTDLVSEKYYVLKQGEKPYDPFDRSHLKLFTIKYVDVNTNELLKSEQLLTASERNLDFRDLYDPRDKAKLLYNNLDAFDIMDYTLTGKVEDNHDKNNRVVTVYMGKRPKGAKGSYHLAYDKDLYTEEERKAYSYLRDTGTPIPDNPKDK

[6] = antiviral protection against BTV-induced cell death – arbovirus, BSR cells, confirmation (AID 1250); assay type: functional;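 note: protection from viral cytopathic effect measured as cell viability by ATP luminescence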
[7] = target: Induced myeloid leukemia cell differentiation protein Mcl-1 (Homo sapiens, UniProt Q07820); assay type: functional
[8] = system: Streptococcus; assay: GAS UMAA2166 growth inhibition – luminescence, BacTiterGlo, counter-screen for streptokinase expression inhibitor project, dose response (AID 1915); assay type: functional, organism-based;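 note: potency for reduction of bacterial viability or growth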
[9] = target: T3, Fatty acid synthase (Homo sapiens, UniProt P49327); assay: inhibition of human FAS-TE enzyme activity – biochemical, endpoint fluorescence intensity, uHTS hits, dose response (AID 624327); assay type: functional;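 note: fluorescence from hydrolysis of an O-methyl fluorescein acyl ester substrate by the enzyme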
[10] = target: T3, Fatty acid synthase; assay: inhibition of human FAS-TE enzyme activity – biochemical, kinetic fluorescence intensity, dose response (AID 624326); assay type: functional;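 note: rate of fluorescence rise from hydrolysis of a fluorogenic O-methyl fluorescein ester substrate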
[11] = A cytotoxicity screen of small molecule inhibitors of the PhoP region in Salmonella typhi identified in the primary screen. [Related pubchem assays: 1850, 1864, 1985 ]; assay type: functional
[12] = target: Neurotensin receptor type 1 (Homo sapiens, UniProt P30989); assay type: functional;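 note: Image-based confirmatory dose-response assay measuring agonist activity at NTR1; NTR1-expressing U2OS osteosarcoma cells imaged for beta-arrestin GFP spot formation; agonist potency where compounds increase beta-arrestin recruitment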
[13] = target: Large T antigen (Simian virus 40, UniProt P03070); assay type: functional, Betapolyomavirus macacae;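 note: Confirmatory-stage PubChem screen for compounds that inhibit SV40 T antigen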
[14] = target: DNA dC->dU-editing enzyme APOBEC-3A (Homo sapiens, UniProt P31941); assay: A3A deaminase inhibition for selectivity – biochemical, dose response (AID 504722); assay type: functional
[15] = target: DNA dC->dU-editing enzyme APOBEC-3G (Homo sapiens, UniProt Q9HC16); assay: Dose Response confirmation of small molecule APOBEC3G DNA Deaminase Inhibitors via a fluorescence-based single-stranded DNA deaminase assay. [Related pubchem assays (depositor defined):AID493012, AID493028]; assay type: functional
[16] = target: Prothrombin (Homo sapiens, UniProt P00734); assay: Thrombin 1536 HTS Dose Response Confirmation. [Related pubchem assays: 1046 (Thrombin 1536 HTS; hits were confirmed in this assay)]; assay type: functional
[17] = target: T4, Coagulation factor XII (Homo sapiens, UniProt P00748); assay type: functional;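 note: activated factor XIIa alpha cleaving a fluorogenic AMC peptide substrate; inhibitor potency from loss of enzyme activity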
T4 sequence (P00748 whole entry): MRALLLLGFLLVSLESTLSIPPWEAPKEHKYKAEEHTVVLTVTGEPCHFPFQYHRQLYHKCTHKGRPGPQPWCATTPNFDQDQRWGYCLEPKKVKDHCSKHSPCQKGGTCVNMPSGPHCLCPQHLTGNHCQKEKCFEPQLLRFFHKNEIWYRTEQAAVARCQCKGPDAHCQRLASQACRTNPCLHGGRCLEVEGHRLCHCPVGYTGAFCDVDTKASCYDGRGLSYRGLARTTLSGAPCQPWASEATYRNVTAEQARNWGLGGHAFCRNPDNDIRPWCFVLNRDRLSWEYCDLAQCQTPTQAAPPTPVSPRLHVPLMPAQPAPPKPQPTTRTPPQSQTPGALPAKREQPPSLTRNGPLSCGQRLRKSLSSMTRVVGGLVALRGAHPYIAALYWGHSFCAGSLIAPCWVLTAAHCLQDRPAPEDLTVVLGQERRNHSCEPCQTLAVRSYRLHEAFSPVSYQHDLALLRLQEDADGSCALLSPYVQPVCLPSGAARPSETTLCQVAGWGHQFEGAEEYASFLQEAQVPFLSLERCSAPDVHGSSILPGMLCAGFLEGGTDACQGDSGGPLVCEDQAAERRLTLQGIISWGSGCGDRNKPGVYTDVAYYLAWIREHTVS

[18] = system: Vero; assay: viability of Vero cells under compound – cytotoxicity control for flavivirus capping enzyme inhibitors (AID 588742); assay type: functional; details: Chlorocebus sabaeus
[19] = target: Genome polyprotein (dengue virus type 2, UniProt P29990); assay: flavivirus cap methylation enzyme inhibition – biochemical, confirmation dose response, primary screen (AID 588689); assay type: functional
[20] = target: T5, Probable nicotinate-nucleotide adenylyltransferase (Staphylococcus aureus (strain N315), UniProt P65502); assay type: functional, Staphylococcus aureus subsp. aureus N315;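 for IC50 Mean: confirmatory dose-response retesting of NadD inhibitor hits first found in an ultra-high-throughput screen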
[21] = target: T5, Probable nicotinate-nucleotide adenylyltransferase; assay type: functional, Staphylococcus aureus subsp. aureus N315; details: read-out: IC50_Mean
[22] = target: Cytochrome P450 2D6 (Homo sapiens, UniProt P10635);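 note: CYP2D6 member of a cytochrome P450 panel assay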
[23] = target: Cytochrome P450 2C9 (Homo sapiens, UniProt P11712)
[24] = target: Voltage-dependent T-type calcium channel subunit alpha-1H (Homo sapiens, UniProt O95180); assay type: functional;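 note: channel activity triggered by adding a high calcium stimulation buffer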
[25] = target: T6, Serine/threonine-protein phosphatase (Homo sapiens, UniProt Q9BPW0); assay: Counterscreen for inhibitors of PP1: fluorescence-based biochemical high throughput dose response assay to identify inhibitors of Protein Phosphatase 5 (PP5). [Related pubchem assays: 2034 (Summary (PP5 inhibitors)), 1987 (PP5 inhibitors in singlate), 2235 (PP1 inhibitors in singlate)]
T6 sequence (Q9BPW0 whole entry): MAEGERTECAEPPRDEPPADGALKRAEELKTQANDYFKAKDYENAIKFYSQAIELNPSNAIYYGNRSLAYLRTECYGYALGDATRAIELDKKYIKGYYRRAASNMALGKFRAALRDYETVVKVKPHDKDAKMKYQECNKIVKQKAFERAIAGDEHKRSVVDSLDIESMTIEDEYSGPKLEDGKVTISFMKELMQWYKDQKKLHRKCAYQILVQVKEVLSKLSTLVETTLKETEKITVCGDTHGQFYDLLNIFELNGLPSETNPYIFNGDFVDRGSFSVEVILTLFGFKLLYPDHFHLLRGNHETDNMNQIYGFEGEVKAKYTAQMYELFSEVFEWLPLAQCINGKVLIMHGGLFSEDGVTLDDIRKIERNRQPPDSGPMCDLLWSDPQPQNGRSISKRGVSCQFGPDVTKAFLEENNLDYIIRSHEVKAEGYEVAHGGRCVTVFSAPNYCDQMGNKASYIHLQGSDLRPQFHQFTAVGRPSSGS

[26] = target: T7, Aspartyl aminopeptidase (Plasmodium falciparum 3D7, UniProt Q8I2J3)
T7 sequence (Q8I2J3 whole entry): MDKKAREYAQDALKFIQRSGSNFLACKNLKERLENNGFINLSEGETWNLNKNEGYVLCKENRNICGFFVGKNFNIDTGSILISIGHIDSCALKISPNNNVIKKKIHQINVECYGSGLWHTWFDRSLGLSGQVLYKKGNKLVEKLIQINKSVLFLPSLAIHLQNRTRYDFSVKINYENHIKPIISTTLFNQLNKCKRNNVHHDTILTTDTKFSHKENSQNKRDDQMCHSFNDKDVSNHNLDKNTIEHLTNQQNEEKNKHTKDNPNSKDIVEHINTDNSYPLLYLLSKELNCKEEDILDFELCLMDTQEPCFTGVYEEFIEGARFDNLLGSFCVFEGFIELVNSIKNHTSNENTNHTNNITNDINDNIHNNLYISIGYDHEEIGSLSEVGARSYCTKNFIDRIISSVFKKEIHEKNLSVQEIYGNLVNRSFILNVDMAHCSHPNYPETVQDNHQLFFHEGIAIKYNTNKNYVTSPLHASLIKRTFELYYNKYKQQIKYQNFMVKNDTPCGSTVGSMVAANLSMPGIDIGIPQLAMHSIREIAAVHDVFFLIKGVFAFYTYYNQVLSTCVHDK

[27] = target: Procathepsin L (Homo sapiens, UniProt P07711)
[28] = Trypanosoma cruzi growth suppression in host cells – NIH3T3 host cells, beta-gal luminescence, confirmation (AID 2044); assay type: functional, cell-based;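 note: intracellular parasites grown in NIH/3T3 mouse fibroblasts as host cells; luminescent beta-galactosidase reporter signal from transgenic T. cruzi replicating inside host cells; inhibitors lower the luminescence signal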
[29] = NIH3T3 cell viability loss – ATP luminescence, mouse fibroblasts, counter-screen, dose response (AID 2010); assay type: functional, cell-based;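 note: cells exposed to compound for about 90 hours before reading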

Sequence of DNA dC->dU-editing enzyme APOBEC-3G (Q9HC16 whole entry): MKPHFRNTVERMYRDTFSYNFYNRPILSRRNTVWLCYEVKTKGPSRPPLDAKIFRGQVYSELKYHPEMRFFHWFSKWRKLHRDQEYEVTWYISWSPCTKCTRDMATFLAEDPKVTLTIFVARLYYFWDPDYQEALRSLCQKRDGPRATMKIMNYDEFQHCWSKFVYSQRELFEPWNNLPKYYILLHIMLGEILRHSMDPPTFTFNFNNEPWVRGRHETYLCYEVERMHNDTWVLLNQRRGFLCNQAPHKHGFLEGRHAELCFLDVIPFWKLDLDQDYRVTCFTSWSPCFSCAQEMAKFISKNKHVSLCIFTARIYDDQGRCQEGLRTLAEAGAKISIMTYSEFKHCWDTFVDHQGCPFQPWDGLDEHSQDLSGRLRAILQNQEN
Sequence of Procathepsin L (P07711 whole entry): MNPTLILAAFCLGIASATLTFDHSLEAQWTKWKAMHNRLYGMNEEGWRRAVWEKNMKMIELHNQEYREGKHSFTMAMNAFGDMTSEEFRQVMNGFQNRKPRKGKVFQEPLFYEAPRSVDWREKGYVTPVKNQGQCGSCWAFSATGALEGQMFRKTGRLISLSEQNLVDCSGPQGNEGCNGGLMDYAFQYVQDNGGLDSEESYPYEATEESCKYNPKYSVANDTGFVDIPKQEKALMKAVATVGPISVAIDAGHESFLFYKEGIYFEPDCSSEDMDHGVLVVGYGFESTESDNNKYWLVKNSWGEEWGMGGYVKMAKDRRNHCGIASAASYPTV
Sequence of Large T antigen (P03070 whole entry): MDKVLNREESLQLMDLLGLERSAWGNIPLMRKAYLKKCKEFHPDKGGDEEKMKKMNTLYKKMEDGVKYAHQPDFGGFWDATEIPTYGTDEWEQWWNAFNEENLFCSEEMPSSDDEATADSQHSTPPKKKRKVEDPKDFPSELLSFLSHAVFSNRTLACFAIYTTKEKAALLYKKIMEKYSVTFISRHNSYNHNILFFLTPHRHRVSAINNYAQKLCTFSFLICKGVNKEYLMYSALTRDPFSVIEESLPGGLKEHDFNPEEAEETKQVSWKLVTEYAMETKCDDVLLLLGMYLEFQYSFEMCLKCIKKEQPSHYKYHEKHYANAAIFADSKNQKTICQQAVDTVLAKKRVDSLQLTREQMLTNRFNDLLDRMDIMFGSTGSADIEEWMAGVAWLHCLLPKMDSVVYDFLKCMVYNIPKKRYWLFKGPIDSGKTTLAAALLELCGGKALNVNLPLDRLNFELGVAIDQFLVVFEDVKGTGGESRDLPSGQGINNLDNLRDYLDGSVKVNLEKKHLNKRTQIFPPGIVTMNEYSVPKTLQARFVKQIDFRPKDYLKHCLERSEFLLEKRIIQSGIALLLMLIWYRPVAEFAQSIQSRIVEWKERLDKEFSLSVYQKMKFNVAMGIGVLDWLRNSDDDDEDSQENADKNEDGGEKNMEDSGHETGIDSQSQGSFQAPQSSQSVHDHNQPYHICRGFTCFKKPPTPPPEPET
T5 sequence (P65502 whole entry): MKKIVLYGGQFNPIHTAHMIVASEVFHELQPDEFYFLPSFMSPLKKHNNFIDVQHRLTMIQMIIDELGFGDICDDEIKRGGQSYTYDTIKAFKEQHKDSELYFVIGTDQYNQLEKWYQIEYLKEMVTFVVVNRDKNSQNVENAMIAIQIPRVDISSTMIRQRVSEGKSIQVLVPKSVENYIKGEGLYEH
Sequence of Induced myeloid leukemia cell differentiation protein Mcl-1 (Q07820 whole entry): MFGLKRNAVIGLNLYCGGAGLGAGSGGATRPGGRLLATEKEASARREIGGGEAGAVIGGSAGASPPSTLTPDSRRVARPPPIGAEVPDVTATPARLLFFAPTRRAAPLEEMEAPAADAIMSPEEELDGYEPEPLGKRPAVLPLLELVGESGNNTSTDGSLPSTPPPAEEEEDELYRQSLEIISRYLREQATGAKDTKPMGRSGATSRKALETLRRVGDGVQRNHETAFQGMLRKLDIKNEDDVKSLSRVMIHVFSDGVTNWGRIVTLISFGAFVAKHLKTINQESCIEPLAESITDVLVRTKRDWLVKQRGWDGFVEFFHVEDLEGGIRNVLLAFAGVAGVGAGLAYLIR
Sequence of DNA dC->dU-editing enzyme APOBEC-3A (P31941 whole entry): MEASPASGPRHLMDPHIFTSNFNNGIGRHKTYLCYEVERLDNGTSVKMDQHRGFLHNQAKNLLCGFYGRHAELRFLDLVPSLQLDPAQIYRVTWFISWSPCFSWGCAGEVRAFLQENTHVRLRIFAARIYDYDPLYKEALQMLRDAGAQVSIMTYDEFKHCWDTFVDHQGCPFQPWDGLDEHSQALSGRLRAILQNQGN
Sequence of Voltage-dependent T-type calcium channel subunit alpha-1H (O95180 whole entry): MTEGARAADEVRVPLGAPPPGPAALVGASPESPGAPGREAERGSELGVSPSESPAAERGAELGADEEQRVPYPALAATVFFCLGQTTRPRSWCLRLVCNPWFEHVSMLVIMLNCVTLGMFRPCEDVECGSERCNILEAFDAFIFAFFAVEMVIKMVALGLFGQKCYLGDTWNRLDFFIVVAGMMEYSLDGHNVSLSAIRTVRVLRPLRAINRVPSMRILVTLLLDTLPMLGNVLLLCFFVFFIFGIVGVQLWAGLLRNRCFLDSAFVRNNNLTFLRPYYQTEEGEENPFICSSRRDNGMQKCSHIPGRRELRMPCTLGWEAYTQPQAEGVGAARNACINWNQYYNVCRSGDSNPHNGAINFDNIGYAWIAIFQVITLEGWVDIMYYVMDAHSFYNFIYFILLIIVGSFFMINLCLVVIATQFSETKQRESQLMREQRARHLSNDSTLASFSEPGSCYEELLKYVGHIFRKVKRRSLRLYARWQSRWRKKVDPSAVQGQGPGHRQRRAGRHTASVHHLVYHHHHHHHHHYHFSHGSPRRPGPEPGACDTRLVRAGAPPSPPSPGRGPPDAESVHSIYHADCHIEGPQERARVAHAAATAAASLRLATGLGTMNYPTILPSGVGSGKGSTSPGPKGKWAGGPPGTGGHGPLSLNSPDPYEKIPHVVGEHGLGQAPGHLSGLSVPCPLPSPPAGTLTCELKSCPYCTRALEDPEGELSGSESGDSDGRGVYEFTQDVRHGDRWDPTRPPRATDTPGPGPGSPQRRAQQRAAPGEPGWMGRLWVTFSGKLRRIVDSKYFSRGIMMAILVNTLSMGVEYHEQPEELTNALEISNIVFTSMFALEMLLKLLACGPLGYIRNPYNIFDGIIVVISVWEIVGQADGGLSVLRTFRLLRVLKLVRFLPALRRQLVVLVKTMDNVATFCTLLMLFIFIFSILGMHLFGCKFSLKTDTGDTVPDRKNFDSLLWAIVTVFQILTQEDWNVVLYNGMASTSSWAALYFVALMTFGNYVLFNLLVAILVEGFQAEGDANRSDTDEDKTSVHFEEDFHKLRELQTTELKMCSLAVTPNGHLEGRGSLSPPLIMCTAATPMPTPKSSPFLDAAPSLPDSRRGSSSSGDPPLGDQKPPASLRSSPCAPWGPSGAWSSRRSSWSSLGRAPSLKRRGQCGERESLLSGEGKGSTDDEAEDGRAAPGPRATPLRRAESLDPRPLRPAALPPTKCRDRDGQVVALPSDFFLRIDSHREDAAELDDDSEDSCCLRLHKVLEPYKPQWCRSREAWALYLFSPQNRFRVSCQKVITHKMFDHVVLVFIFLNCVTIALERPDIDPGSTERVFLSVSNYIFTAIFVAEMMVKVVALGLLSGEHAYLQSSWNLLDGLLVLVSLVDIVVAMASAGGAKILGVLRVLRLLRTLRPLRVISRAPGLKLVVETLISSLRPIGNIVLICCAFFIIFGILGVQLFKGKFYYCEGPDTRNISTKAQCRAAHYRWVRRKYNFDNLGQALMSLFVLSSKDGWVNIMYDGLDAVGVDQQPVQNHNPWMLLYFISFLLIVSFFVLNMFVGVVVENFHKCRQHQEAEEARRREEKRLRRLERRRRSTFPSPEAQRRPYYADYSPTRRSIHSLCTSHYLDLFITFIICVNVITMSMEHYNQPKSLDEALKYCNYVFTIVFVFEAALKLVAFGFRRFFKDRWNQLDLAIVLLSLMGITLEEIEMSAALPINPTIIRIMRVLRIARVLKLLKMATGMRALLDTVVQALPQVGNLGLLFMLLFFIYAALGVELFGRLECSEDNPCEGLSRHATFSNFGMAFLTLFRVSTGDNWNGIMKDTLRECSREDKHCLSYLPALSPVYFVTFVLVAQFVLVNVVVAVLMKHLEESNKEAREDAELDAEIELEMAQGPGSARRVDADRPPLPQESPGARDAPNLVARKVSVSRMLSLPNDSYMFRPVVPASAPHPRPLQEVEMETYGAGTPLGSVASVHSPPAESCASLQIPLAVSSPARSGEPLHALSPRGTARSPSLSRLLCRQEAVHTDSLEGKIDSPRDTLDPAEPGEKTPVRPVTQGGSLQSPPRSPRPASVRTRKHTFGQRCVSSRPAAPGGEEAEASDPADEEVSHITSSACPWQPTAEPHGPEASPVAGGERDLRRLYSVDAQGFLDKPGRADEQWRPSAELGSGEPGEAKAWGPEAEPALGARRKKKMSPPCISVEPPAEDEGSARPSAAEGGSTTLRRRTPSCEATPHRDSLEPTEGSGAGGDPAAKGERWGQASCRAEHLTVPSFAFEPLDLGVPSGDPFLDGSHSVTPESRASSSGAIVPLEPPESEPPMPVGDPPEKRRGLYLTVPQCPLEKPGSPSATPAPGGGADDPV
Sequence of Neurotensin receptor type 1 (P30989 whole entry): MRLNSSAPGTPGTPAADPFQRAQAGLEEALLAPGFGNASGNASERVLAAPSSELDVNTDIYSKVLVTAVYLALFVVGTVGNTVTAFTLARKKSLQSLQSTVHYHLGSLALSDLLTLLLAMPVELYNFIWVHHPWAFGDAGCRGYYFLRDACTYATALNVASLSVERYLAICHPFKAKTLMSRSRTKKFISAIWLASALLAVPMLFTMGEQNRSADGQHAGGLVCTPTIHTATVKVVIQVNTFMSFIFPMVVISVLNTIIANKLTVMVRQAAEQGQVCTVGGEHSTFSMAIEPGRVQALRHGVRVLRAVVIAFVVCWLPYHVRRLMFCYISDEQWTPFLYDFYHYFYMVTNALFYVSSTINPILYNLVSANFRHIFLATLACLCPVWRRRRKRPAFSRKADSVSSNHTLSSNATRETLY

## Cc1ccc(-c2nn3c(C)nnc3s2)cc1NC(=O)COc1ccc(Cl)cc1
[1]
  EC50: 17.2 µM (active)
[2]
  IC50: > 79 µM (inactive)

## COc1cc(OC)c(/C=N/NC(N)=S)cc1Br
[3]
  IC50: > 80 µM (inactive)

## COc1ccc(C(=O)O)cc1NC(=S)NC(=O)c1ccc(-c2ccc(Cl)cc2)o1
[4]
  EC50: 5.27 µM (active)
[5]
  EC50: 23.8 µM (inconclusive)
[6]
  IC50: 27.1 µM (active)
[7]
  IC50: 7.13 µM (not active)
[8]
  EC50: > 150 µM (not active)
[9]
  IC50: 7.33 µM (active)
[10]
  IC50: 7.5 µM (active)

## CCN(CC)c1ccc(/C=N/N=C(c2ccccc2)c2ccccc2)c(O)c1
[3]
  IC50: > 80 µM (inactive)

## COc1ccc(NC(=O)Cn2c(=O)oc3cc(S(=O)(=O)N4CCCC4)ccc32)c(OC)c1
[11]
  EC50: > 50 µM (active)

## CCOc1ccc(Br)cc1S(=O)(=O)Nc1ccccc1N1CCOCC1
[12]
  EC50: > 40 µM (inactive)

## CC(C)Oc1ccc(C(=O)Nc2ccc(N(C)C)cc2)cc1
[13]
  IC50: 25.3 µM (active)
[7]
  IC50: 4.48 µM (not active)
[3]
  IC50: > 80 µM (inactive)

## C=CCn1c(S)nnc1CSc1nc2ccccc2s1
[14]
  IC50: > 100 µM (inactive)
[15]
  IC50: 3.29 µM (active)

## NC(=O)/C(=N\OC(=O)c1ccco1)c1nc(-c2ccc(Br)cc2)cs1
[16]
  IC50: 0.925 µM (active)
[6]
  IC50: 34.3 µM (active)
[17]
  IC50: 21 µM (active)
[18]
  CC50: > 40 µM (active)
[19]
  IC50: 40.8 µM (active)
[20]
  IC50: 7.32 µM (active)
[21]
  IC50: 29.2 µM (active)
[22]
  AC50: 25.1 µM (inconclusive)

## Cc1ccc(S(=O)(=O)NCCn2c(C)cc3ccccc32)cc1
[1]
  EC50: 28.7 µM (active)
[23]
  AC50: 3.55 µM (inconclusive)

## O=C(NCc1ccccc1)C(c1ccccc1)N(Cc1ccc2c(c1)OCO2)C(=O)Cc1cccs1 (stereo unspecified)
[24]
  EC50: 5.37 µM (active)

## O=C1OC(=O)C2C1[C@@H]1CC[C@H]2O1 (stereo partly specified)
[25]
  IC50: 3.06 µM (active)

## Sc1nnc(COc2ccccc2)n1/N=C/c1cccnc1
[14]
  IC50: > 100 µM (inactive)
[15]
  IC50: 3.71 µM (active)

## O=c1c2c([N+](=O)[O-])cc([N+](=O)[O-])cc2sn1Cc1ccccc1
[4]
  EC50: 4.35 µM (active)
[26]
  IC50: > 0.101 µM (active)
[27]
  IC50: > 59.6 µM (not active)
[5]
  EC50: > 150 µM (not active)
[13]
  IC50: 13.1 µM (active)
[28]
  EC50: 1.77 µM (active)
[29]
  EC50: 16.9 µM (active)
[8]
  EC50: 16.1 µM (active)
[15]
  IC50: 4.16 µM (active)

## Cc1ccc(C)c2nc(O)c(CN(Cc3cccnc3)C(S)=NCc3ccco3)cc12
[11]
  EC50: > 50 µM (active)

## O=C1OC(=O)C2C3CCC(O3)C12 (stereo unspecified)
[25]
  IC50: 2.57 µM (active)

## O=C(CSc1nnc(-c2cccs2)n1Cc1ccccc1)NCc1ccc2c(c1)OCO2
[24]
  EC50: 10.2 µM (active)

## O=C(NC1(C(F)(F)F)Oc2ccccc2O1)N1CCC2(CC1)OCCO2
[26]
  IC50: 2.78 µM (active)
[27]
  IC50: > 59.6 µM (not active)
